Measurements reported in ChEMBL document CHEMBL3638768, “(aza)indole derivative and use thereof for medical purposes” (2015).

Biological target: Xanthine dehydrogenase/oxidase (Bos taurus, UniProt P80457)
Experiment: Inhibition Assay: Test compounds were dissolved in DMSO (Wako) at 40 mM concentration and then diluted to intended concentrations with phosphate-buffered saline (PBS). Xanthine oxidase (from bovine milk, Sigma) was prepared with phosphate-buffered saline (PBS) at 0.02 units/mL, and then the solution was added to 96 well plates at 50 μL/well. In addition, test compounds diluted with PBS were added at 50 μL/well. Xanthine (Wako) at 200 μM prepared with PBS was added at 100 μL/well, and the reaction was conducted for 10 minutes at room temperature. Absorbance at 290 nm was measured using a microplate reader SpectraMax Plus 384 (Molecular device). The absorbance under a condition without xanthine is 0%, and control without test compounds is 100%.

Sequence of Xanthine dehydrogenase/oxidase (P80457 whole entry): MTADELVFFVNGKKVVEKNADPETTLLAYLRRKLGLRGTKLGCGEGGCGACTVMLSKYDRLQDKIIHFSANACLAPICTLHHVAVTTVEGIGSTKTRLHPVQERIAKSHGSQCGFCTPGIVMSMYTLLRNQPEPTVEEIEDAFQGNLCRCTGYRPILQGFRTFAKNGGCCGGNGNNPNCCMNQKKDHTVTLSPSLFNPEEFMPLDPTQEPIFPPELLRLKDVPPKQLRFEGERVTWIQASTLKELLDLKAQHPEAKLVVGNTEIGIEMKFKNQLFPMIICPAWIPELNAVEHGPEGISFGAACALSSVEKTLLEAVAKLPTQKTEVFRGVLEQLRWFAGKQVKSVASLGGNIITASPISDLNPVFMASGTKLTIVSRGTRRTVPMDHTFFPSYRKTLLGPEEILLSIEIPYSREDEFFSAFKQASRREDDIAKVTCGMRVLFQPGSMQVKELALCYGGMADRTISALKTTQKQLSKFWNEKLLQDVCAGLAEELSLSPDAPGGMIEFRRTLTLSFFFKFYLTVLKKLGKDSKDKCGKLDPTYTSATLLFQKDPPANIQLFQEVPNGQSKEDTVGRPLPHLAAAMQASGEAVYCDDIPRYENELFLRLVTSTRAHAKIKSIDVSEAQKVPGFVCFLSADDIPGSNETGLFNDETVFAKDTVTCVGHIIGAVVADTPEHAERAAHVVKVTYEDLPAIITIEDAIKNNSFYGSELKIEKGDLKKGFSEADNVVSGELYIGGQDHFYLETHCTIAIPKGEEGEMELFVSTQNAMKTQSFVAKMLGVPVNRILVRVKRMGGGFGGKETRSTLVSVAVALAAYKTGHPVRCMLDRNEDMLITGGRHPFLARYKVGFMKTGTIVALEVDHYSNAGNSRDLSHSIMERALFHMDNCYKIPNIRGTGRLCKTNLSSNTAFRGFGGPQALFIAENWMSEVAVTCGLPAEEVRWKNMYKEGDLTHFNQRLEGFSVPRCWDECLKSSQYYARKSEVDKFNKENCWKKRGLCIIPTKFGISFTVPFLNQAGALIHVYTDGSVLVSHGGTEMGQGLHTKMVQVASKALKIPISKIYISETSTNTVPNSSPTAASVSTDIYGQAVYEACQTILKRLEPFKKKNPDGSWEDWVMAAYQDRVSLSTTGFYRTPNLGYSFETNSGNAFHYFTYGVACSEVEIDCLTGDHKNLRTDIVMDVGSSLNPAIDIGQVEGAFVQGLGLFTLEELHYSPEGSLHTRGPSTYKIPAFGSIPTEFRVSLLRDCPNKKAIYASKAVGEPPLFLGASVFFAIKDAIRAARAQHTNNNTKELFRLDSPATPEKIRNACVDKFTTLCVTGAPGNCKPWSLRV

N#Cc1cn(-c2ccc(C(=O)O)cn2)c2ccccc12
IC50: 72.9 nM
